Values quoted from earlier work in patent US20070173447A1, “METHOD FOR TREATING OSTEOPOROSIS BY INTRANASAL DELIVERY OF TERIPARATIDE WITH AN ANTI-RESORPTIVE AGENT” (Nastech Pharmaceutical Company Inc., priority 2005, published 2007).
Like-named read-outs stand apart in the source and are kept apart here. Ends that are not written are not given here.

Tests used:
[1] = tested on: ciliary motility
[2] = rats, intraduodenal, with 1% (w/v) saline dispersion of polycarbophil
[3] = anesthetized rats
[4] = intranasal, up to 500 μg per day for 7 days and up to 1,000 μg per day for 3 months
[5] = tested on: ovariectomized rat model
[6] = after feeding to rats

2-alkyl-4-hydroxyquinolines [pyo compound]
concentration producing ciliostasis / inhibiting ciliary motility [1]: 50 µg/mL

9-desglycinamide, 8-arginine vasopressin [DGAVP]
bioavailability increase compared to aqueous solution without polymer [2]: 3-5 fold

human growth hormone
nasal bioavailability ([3]; with N-acetyl-L-cysteine): 12.2% | nasal bioavailability ([3]; without N-acetyl-L-cysteine): 7.5%

CC[C@H](C)[C@H](NC(=O)[C@H](CCC(=O)O)NC(=O)[C@H](CO)NC(=O)[C@@H](NC(=O)[C@@H](N)CO)C(C)C)C(=O)N[C@@H](CCC(N)=O)C(=O)N[C@@H](CC(C)C)C(=O)N[C@@H](CCSC)C(=O)N[C@@H](Cc1cnc[nH]1)C(=O)N[C@@H](CC(N)=O)C(=O)N[C@@H](CC(C)C)C(=O)NCC(=O)N[C@@H](CCCCN)C(=O)N[C@@H](Cc1cnc[nH]1)C(=O)N[C@@H](CC(C)C)C(=O)N[C@@H](CC(N)=O)C(=O)N[C@@H](CO)C(=O)N[C@@H](CCSC)C(=O)N[C@@H](CCC(=O)O)C(=O)N[C@@H](CCCN=C(N)N)C(=O)N[C@H](C(=O)N[C@@H](CCC(=O)O)C(=O)N[C@@H](Cc1c[nH]c2ccccc12)C(=O)N[C@@H](CC(C)C)C(=O)N[C@@H](CCCN=C(N)N)C(=O)N[C@@H](CCCCN)C(=O)N[C@@H](CCCCN)C(=O)N[C@@H](CC(C)C)C(=O)N[C@@H](CCC(N)=O)C(=O)N[C@@H](CC(=O)O)C(=O)N[C@H](C(=O)N[C@@H](Cc1cnc[nH]1)C(=O)N[C@@H](CC(N)=O)C(=O)N[C@@H](Cc1ccccc1)C(=O)O)C(C)C)C(C)C [Teriparatide, teriparatide]
safety concerns [4]: No safety concerns were noted

hPTH1-31NH2 (SVSEIQLMHNLGKHLNSMERVEWLRKKLQDV-NH2; listed as Homo sapiens)
restoration of bone loss [5]: fully active

Phaseolus vulgaris hemagglutinin
oral bioavailability [6]: more than 10%
